Experiments:
[1] = target: T1, Aryl hydrocarbon receptor (Mus musculus, UniProt P30561); test: Antagonist activity at AhR receptor in mouse B16-F10 cells assessed as inhibition of kynurenine-induced receptor nuclear translocation by measuring increase in receptor level in cytoplasm at 10 to 30 uM measured after 72 hrs by Hoechst staining based immunofluorescence analysis; format: cell-based; settings: b16-f10, 72 h, dose 10-30 µM
T1 sequence (P30561 whole entry): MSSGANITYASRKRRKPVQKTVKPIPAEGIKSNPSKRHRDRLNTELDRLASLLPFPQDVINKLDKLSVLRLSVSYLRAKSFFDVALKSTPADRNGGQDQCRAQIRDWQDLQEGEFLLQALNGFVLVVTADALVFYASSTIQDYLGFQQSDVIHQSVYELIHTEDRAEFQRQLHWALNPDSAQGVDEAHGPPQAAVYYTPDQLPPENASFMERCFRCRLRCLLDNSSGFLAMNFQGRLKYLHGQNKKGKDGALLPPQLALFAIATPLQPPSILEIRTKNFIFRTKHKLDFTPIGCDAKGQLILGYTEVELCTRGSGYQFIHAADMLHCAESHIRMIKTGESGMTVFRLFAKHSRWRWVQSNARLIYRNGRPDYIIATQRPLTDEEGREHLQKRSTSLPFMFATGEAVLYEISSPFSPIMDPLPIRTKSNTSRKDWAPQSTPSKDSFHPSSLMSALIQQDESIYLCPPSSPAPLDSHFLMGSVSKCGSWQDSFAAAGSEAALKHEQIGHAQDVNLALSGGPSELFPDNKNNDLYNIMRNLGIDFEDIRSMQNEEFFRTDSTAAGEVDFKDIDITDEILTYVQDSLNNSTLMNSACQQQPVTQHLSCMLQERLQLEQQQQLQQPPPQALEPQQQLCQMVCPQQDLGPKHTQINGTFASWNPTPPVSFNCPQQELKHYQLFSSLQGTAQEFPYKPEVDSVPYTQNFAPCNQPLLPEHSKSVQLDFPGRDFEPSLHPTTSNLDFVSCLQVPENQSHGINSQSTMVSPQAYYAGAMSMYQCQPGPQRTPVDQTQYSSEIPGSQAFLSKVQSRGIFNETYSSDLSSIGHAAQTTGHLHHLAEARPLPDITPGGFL

[2] = target: T1, Aryl hydrocarbon receptor; test: Antagonist activity at AhR receptor in mouse B16-F10 cells assessed as inhibition of kynurenine-induced receptor nuclear translocation by measuring increase in receptor level in cytoplasm at 30 uM measured after 24 hrs by western blot analysis; format: subcellular; settings: b16-f10, 24 h
[3] = Toxicity against C57BL/6 mouse xenografted with mouse B16-F10 cells assessed as change in body weight at 0.3 to 1 mg/kg, po administered daily and measured for 15 days; format: organism-based; settings: in vivo, 360 h, dose 0.3-1 mg/kg, time 15 day
[4] = target: T1, Aryl hydrocarbon receptor; test: Antagonist activity at AhR receptor in kynurenine-stimulated mouse B16-F10 cells assessed as decrease in AhRR gene expression at 10 to 30 uM measured after 24 hrs by RT-qPCR analysis; format: cell-based; settings: b16-f10, 24 h, dose 10-30 µM
[5] = target: T1, Aryl hydrocarbon receptor; test: Antagonist activity at AhR receptor in mouse B16-F10 cells assessed as inhibition of kynurenine-induced receptor nuclear translocation by measuring decrease in receptor level in nucleus at 30 uM measured after 24 hrs by western blot analysis; format: subcellular; settings: b16-f10, 24 h
[6] = target: T1, Aryl hydrocarbon receptor; test: Antagonist activity at AhR receptor in kynurenine-stimulated mouse B16-F10 cells assessed as decrease in IL-6 gene expression at 10 to 30 uM measured after 24 hrs by RT-qPCR analysis; format: cell-based; settings: b16-f10, 24 h, dose 10-30 µM
[7] = target: T1, Aryl hydrocarbon receptor; test: Antagonist activity at AhR receptor in mouse B16-F10 cells assessed as inhibition of kynurenine-induced receptor nuclear translocation by measuring decrease in receptor level in nucleus at 10 to 30 uM measured after 72 hrs by Hoechst staining based immunofluorescence analysis; format: cell-based; settings: b16-f10, 72 h, dose 10-30 µM
[8] = target: T1, Aryl hydrocarbon receptor; test: Antagonist activity at AhR receptor in kynurenine-stimulated mouse B16-F10 cells assessed as decrease in IDO-1 gene expression at 10 to 30 uM measured after 48 hrs by RT-qPCR analysis; format: cell-based; settings: b16-f10, 48 h, dose 10-30 µM
B16-F10 = test: animal or person; settings: Mus musculus, B16-F10, 360 h, read-out: TGI
Description: Antitumor activity against mouse B16-F10 cells xenografted in C57BL/6 mouse assessed as inhibition of tumor growth at 100 mg/kg, ip administered once a week and measured for 15 days

inhibition (INH) [1]	inhibition (INH) [2]	inhibition (INH) [4]	inhibition (INH) [5]	inhibition (INH) [6]	inhibition (INH) [7]	inhibition (INH) [8]	SMILES	Activity [3]	inhibition in vivo at 100 mg/kg (B16-F10) [%]
Active	Active	Active	Active	Active	Active	Active	CC(=O)OC1Oc2c(C(C)C)cc3ccc4c(C)c(C)ccc4c3c2OC1c1ccccc1 (racemic)	Non-Toxic	
							O=P1(N(CCCl)CCCl)NCCCO1 (centres undefined) [CYCLOPHOSPHAMIDE ANHYDROUS]		92.2

Reference: ChEMBL document CHEMBL5528030, “Discovery of Natural Ah Receptor Antagonists from Salvia miltiorrhiza Bunge and Synthesis of Analogs for Tumor Immunotherapy” (J Med Chem, 2024)
